Test results as given in US3997598A, “Process for purifying sorbic acid” (Hoechst Aktiengesellschaft, priority 1973, dated 1976).
In brackets after ≈: the same amount, converted by molar mass. Where two headings read alike, the source gives them in different places.

Key:
[1] = 30% aqueous dipotassium hydrogen phosphate
physchem = details: 30% aqueous dipotassium hydrogen phosphate
[2] = cited from earlier work

SMILES: C/C=C/C=C/C(=O)O [sorbic acid]
- solubility [1]: 15.1 grams per 100 ml of a salt sol
- solubility (physchem): 79 mg/mL (≈ 705 mM)
- solubility in water ([2]; 100° C): approximately 3%
- solubility in water ([2]; in words): low solubility
